From PMC8318587, “Structure-guided microbial targeting of antistaphylococcal prodrugs” (eLife, 2021) come the findings set out here.

Each structure is given as a SMILES string.

Assay [1] deals with T1, SaFrmB (Staphylococcus aureus, UniProt A0A0H3KFB7).
T1 construct: made in house; host or cells: E. coli BL21 (DE3)
T1 sequence (A0A0H3KFB7 1-253): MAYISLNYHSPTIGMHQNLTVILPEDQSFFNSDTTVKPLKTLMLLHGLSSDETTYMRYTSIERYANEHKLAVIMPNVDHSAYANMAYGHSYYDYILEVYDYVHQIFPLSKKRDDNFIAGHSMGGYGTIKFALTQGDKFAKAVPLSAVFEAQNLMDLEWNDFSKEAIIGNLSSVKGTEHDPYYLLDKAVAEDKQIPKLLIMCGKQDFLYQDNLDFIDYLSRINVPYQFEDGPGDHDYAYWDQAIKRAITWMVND
Nature of the assay: Esterase substrate specificity, fluorogenic SAR library kinetics. The class given is biochemical. The conditions noted are these: for kcat/kuncat: SaFrmB; for Km: SaFrmB 15 µg/mL, pH 7.5, 37°C. Here is the method:
(§1) Kinetic measurements were performed according to [White et al., 2018] with minor variation. Lyophilized human and mouse sera were resuspended according to manufacturer instructions in highly pure, filtered water at protein concentrations of 85 mg/mL and 70 mg/mL, respectively. One milliliter of resuspended serum was added to a 24 mL mastermix for a final concentration of 31.25 mM Tris pH 7.5, 312.5 mM NaCl, 1.25 mM MgCl2, 12.5% glycerol, and 3.4 mg/mL or 2.8 mg/mL protein for human and mouse serum, respectively. For purified proteins, 5 mL of a 75 µg/mL stock was added to yield a 20 mL mastermix containing 31.25 mM Tris pH 7.5, 312.5 mM NaCl, 1.25 mM MgCl2, 12.5% glycerol, and 18.75 µg/mL protein. Mastermix was stored on ice when not in use. Twenty microliters of mastermix was transferred to a black, 96-well half area microplate (Corning, CLS3993) and prewarmed at 37°C. Fluorogenic substrates were prepared as 10 mM stock solutions in 100% DMSO and were diluted in water to a starting concentration of 500 µM. Enzyme catalyzed substrate hydrolysis was initiated by addition of 5 µL substrate dilution in technical duplicate to the prewarmed serum or protein solution. Final assay concentrations were as follows: 25 mM Tris pH 7.5, 250 mM NaCl, 1 mM MgCl2, 10% glycerol, and protein at a concentration of 2.72 mg/mL (human serum), 2.24 mg/mL (mouse serum), or 15 µg/mL (FrmB, GloB). The resulting change in fluorescence (λex = 485 nm, λem = 520 nm) was followed for 15 min at 37°C, collecting data every 30 s on a FLUOstar Omega microplate reader (BMG Labtech). Fluorescence measurements were converted to molar concentrations using a fluorescein standard curve (2.5 nmol–0.6 pmol). The initial rates of reaction were measured three independent times with two technical replicates per measurement and fit to a line using GraphPad Prism (GraphPad Software, La Jolla, CA). Initial rates of reaction were plotted versus the concentration of substrate and fit to a standard Michaelis–Menten equation (v = Vmax[S]/(Km + [S])), yielding estimates of Vmax and Km. Values for kcat and kcat/Km were calculated based on amount of enzyme added when purified enzymes were used.

The target of assay [2] is T2, SaGloB (Staphylococcus aureus, UniProt P0DY75).
T2 sequence (P0DY75 1-207): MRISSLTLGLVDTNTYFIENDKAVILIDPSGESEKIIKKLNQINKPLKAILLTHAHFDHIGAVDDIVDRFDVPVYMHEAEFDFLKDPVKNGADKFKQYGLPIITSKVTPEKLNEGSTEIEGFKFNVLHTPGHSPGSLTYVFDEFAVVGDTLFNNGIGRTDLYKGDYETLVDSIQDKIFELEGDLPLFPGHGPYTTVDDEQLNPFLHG
The description is as above. The class given is biochemical. To be noted: SaGloB; for kcat/kuncat: normalised to uncatalysed hydrolysis rate; for Km: fluorogenic ester substrate. Here is the method: as §1

Assay [3] relates to human sera. In words: Esterase substrate specificity, fluorogenic SAR library kinetics in serum. Type of assay: in vitro ADME. As for the experimental part: as §1
The subject of assay [4] is mouse sera. Described as above. Type of assay: in vitro ADME. As for the experimental part: as §1

On to `CCCC(=O)OCOc1ccc2c(c1)Oc1cc(OCOC(=O)CCC)ccc1C21OC(=O)c2ccccc21` [1C], for which the figures for the kcat/kuncat in assay [1] and in assay [2] were 7.99 103 and 21.2 103, respectively. Also, the Michaelis constant (Km) is 36.2 µM in assay [3] and more than 50 µM in assay [4]. Further, the Vmax in assay [3] came to 1.06 pmol*min-1*mg sera-1.

For the molecule `CSCC(=O)OCOc1ccc2c(c1)Oc1cc(OCOC(=O)CSC)ccc1C21OC(=O)c2ccccc21` [1S], the Km in assay [1] is more than 50 µM; in assay [3], 71.8 µM; in assay [4], more than 50 µM. For the same molecule, in assay [2], the kcat/kuncat is recorded as 11.4 103. The Vmax in assay [3] is 30.5 pmol*min-1*mg sera-1.

Regarding `CCCCC(=O)OCOc1ccc2c(c1)Oc1cc(OCOC(=O)CCCC)ccc1C21OC(=O)c2ccccc21` [2C], the kcat/kuncat is 4.74 103 in assay [1] and 17.2 103 in assay [2]. In addition, the Km is 71.5 µM in assay [3] and more than 50 µM in assay [4]. The Vmax in assay [3] amounted to 0.356 pmol*min-1*mg sera-1.

As for `CCOCC(=O)OCOc1ccc2c(c1)Oc1cc(OCOC(=O)COCC)ccc1C21OC(=O)c2ccccc21` [2O], the kcat/kuncat in assay [1] is listed as 1.08 103; in assay [2], 19.4 103. Further, the Km in assay [3] is 40.4 µM; in assay [4] it was more than 50 µM. Besides, the Vmax in assay [3] amounted to 43.8 pmol*min-1*mg sera-1.

On to `CCSCC(=O)OCOc1ccc2c(c1)Oc1cc(OCOC(=O)CSCC)ccc1C21OC(=O)c2ccccc21` [2S], for which the Km in assay [1], in assay [2], in assay [3] and in assay [4] was more than 50 µM throughout.

`CCCOCC(=O)OCOc1ccc2c(c1)Oc1cc(OCOC(=O)COCCC)ccc1C21OC(=O)c2ccccc21` [3O]: the kcat/kuncat was 0.911 103 in assay [1] and 4.91 103 in assay [2]. For the same molecule, the values for the Km in assay [3] and in assay [4] were 22.2 µM and more than 50 µM, respectively. The Vmax in assay [3] worked out at 11.7 pmol*min-1*mg sera-1.

`CCCSCC(=O)OCOc1ccc2c(c1)Oc1cc(OCOC(=O)CSCCC)ccc1C21OC(=O)c2ccccc21` [3S]: the Km in assay [1] was more than 50 µM; in assay [2], more than 50 µM; in assay [3], 74.3 µM; in assay [4], more than 50 µM. In addition, the Vmax in assay [3] worked out at 8.80 pmol*min-1*mg sera-1.

With `COCCC(=O)OCOc1ccc2c(c1)Oc1cc(OCOC(=O)CCOC)ccc1C21OC(=O)c2ccccc21` [4O], the results for the kcat/kuncat in assay [1] and in assay [2] were 1.40 103 and 8.42 103, respectively. Further, the values for the Km in assay [3] and in assay [4] were 44.5 µM and more than 50 µM, respectively. The Vmax in assay [3] was 5.88 pmol*min-1*mg sera-1.

With `CSCCC(=O)OCOc1ccc2c(c1)Oc1cc(OCOC(=O)CCSC)ccc1C21OC(=O)c2ccccc21` [4S], in assay [1], the kcat/kuncat is listed as 1.40 103. For the same molecule, the results for the Km in assay [2], in assay [3] and in assay [4] were more than 50 µM, 27.9 µM and more than 50 µM, respectively. The Vmax in assay [3] worked out at 3.81 pmol*min-1*mg sera-1.

As to `CCSCCC(=O)OCOc1ccc2c(c1)Oc1cc(OCOC(=O)CCSCC)ccc1C21OC(=O)c2ccccc21` [5S], the figures for the kcat/kuncat in assay [1] and in assay [2] were 0.910 103 and 4.35 103, respectively. In addition, the Km in assay [3] is 31 µM; in assay [4], more than 50 µM. The Vmax in assay [3] came out at 0.690 pmol*min-1*mg sera-1.

`CC(C)CCC(=O)OCOc1ccc2c(c1)Oc1cc(OCOC(=O)CCC(C)C)ccc1C21OC(=O)c2ccccc21` [6C]: the Km in assay [1] is more than 50 µM; in assay [3], more than 50 µM; in assay [4], 53.5 µM. In addition, the kcat/kuncat in assay [2] is reported as 12.7 103. Moreover, the Vmax in assay [4] is on record as 17.6 pmol*min-1*mg sera-1.

In the case of `CC(C)OCC(=O)OCOc1ccc2c(c1)Oc1cc(OCOC(=O)COC(C)C)ccc1C21OC(=O)c2ccccc21` [6O], the kcat/kuncat in assay [1] is 1.49 103; in assay [2], 5.76 103. Moreover, the Km in assay [3] is 54.6 µM; in assay [4] it was 11.5 µM. Also, the Vmax is given as 11.7 pmol*min-1*mg sera-1 in assay [3] and 437 pmol*min-1*mg sera-1 in assay [4].

With `CC(C)SCC(=O)OCOc1ccc2c(c1)Oc1cc(OCOC(=O)CSC(C)C)ccc1C21OC(=O)c2ccccc21` [6S], the kcat/kuncat is 2.44 103 in assay [1] and 12.9 103 in assay [2]. Moreover, the Km in assay [3] and in assay [4] was more than 50 µM throughout.

Regarding `CCC(C)C(=O)OCOc1ccc2c(c1)Oc1cc(OCOC(=O)C(C)CC)ccc1C21OC(=O)c2ccccc21` (stereo not shown) [7C], the Km in assay [1] was more than 50 µM; in assay [2], more than 50 µM; in assay [3], 64.2 µM; in assay [4], more than 50 µM. Moreover, the Vmax in assay [3] came out at 0.441 pmol*min-1*mg sera-1.

For the molecule `COC(C)C(=O)OCOc1ccc2c(c1)Oc1cc(OCOC(=O)C(C)OC)ccc1C21OC(=O)c2ccccc21` (stereo not shown) [7O], the kcat/kuncat in assay [1] is 3.31 103; in assay [2] it was 23.6 103. For the same molecule, the results for the Km in assay [3] and in assay [4] were 30.3 µM and 25.9 µM, respectively. Besides, the results for the Vmax in assay [3] and in assay [4] were 5.73 pmol*min-1*mg sera-1 and 929 pmol*min-1*mg sera-1, respectively.

Turning to `CSC(C)C(=O)OCOc1ccc2c(c1)Oc1cc(OCOC(=O)C(C)SC)ccc1C21OC(=O)c2ccccc21` (stereo not shown) [7S], the values for the Km in assay [1], in assay [3] and in assay [4] were more than 50 µM, 30.2 µM and more than 50 µM, respectively. Further, the kcat/kuncat in assay [2] was 7.86 103. The Vmax in assay [3] was 1.60 pmol*min-1*mg sera-1.

As for `CCCC(C)C(=O)OCOc1ccc2c(c1)Oc1cc(OCOC(=O)C(C)CCC)ccc1C21OC(=O)c2ccccc21` (stereo not shown) [8C], the Km in assay [1], in assay [3] and in assay [4] was more than 50 µM each time. The kcat/kuncat in assay [2] is reported as 79.1 103.

Turning to `CCOC(C)C(=O)OCOc1ccc2c(c1)Oc1cc(OCOC(=O)C(C)OCC)ccc1C21OC(=O)c2ccccc21` (stereo not shown) [8O], the kcat/kuncat is 1.38 103 in assay [1] and 6.80 103 in assay [2]. Moreover, the Km in assay [3] is 27.7 µM; in assay [4], more than 50 µM. In addition, in assay [3], the Vmax came out at 3.93 pmol*min-1*mg sera-1.

With `CCSC(C)C(=O)OCOc1ccc2c(c1)Oc1cc(OCOC(=O)C(C)SCC)ccc1C21OC(=O)c2ccccc21` (stereo not shown) [8S], the Km in assay [1], in assay [3] and in assay [4] was more than 50 µM throughout. The kcat/kuncat in assay [2] is 9.01 103.

With `CCC(OC)C(=O)OCOc1ccc2c(c1)Oc1cc(OCOC(=O)C(CC)OC)ccc1C21OC(=O)c2ccccc21` (stereo not shown) [9O], the Km in assay [1] was more than 50 µM; in assay [3] it was 112 µM; in assay [4], more than 50 µM. The kcat/kuncat in assay [2] was 14.6 103. In addition, the Vmax in assay [3] was 4.35 pmol*min-1*mg sera-1.

Consider `CCC(SC)C(=O)OCOc1ccc2c(c1)Oc1cc(OCOC(=O)C(CC)SC)ccc1C21OC(=O)c2ccccc21` (stereo not shown) [9S], for which the Km in assay [1], in assay [2], in assay [3] and in assay [4] was more than 50 µM each time.

As for `CCC(C)(C)C(=O)OCOc1ccc2c(c1)Oc1cc(OCOC(=O)C(C)(C)CC)ccc1C21OC(=O)c2ccccc21` [10C], the Km in assay [1], in assay [2], in assay [3] and in assay [4] was more than 50 µM each time.

`COC(C)(C)C(=O)OCOc1ccc2c(c1)Oc1cc(OCOC(=O)C(C)(C)OC)ccc1C21OC(=O)c2ccccc21` [10O]: the kcat/kuncat in assay [1] is 4.97 103. In addition, the Km in assay [2] was more than 50 µM; in assay [3], 63.3 µM; in assay [4], more than 50 µM. The Vmax in assay [3] worked out at 1.46 pmol*min-1*mg sera-1.

Consider `O=C(CCc1ccccc1)OCOc1ccc2c(c1)Oc1cc(OCOC(=O)CCc3ccccc3)ccc1C21OC(=O)c2ccccc21` [11C], for which the Km in assay [1], in assay [2], in assay [3] and in assay [4] was more than 50 µM in each case.

What is called Km is the concentration of substrate that gives half-maximal velocity.
